Assay results as given in patent US7993687B2, “Compositions and methods for management of diabetes” (priority 2006, dated 2011).

Assays:
Type in all cases: cell-based, rat
[1] = tested on: p42/44 MAPK (Thr202/Tyr204); experiment: Western blot of MAPK phosphorylation in H4IIE cells; conditions: for phosphorylation of MAPK (FIG. 9): 6 minutes, insulin 250 nM, 2 μL of BWE, D-CI or MI solution
Method: Tissue culture media, antibiotics, fetal bovine serum (FBS) and Nunc tissue culture plates were purchased from Invitrogen Canada Inc. (Burlington, Ontario, Canada, L7P 1A1). Insulin (Sigma-Aldrich Canada Ltd., Oakville, Ontario, Canada, L6H 6J8) was dissolved in water and added directly to cells at a concentration of 250 nM unless otherwise indicated. The BWE was prepared and analyzed as described in Example 1. Two μL of the BWE were added directly to cells unless otherwise indicated. […] Myo-inositol (Sigma-Aldrich Canada Ltd.) and D-chiro-inositol (Industrial Research Ltd., Wellington, New Zealand) were dissolved in water at an equal concentration to the amounts present in the BWE (Table 3) and 2 μL of each solution (0.1% v/v final concentration) was added directly to cells.
(§1) Rat H4IIE hepatoma cells (American Type Culture Collection, CRL 1548) were cultured following the method disclosed by Yau et al., (1998, Eur. J. Biochem. 253: 91-1). The H4IIE cells were maintained in α-modified Eagle's media containing 10% FBS, 2 mM glutamine, 25 μg·mL^−1 streptomycin and 25 units·mL^−1 penicillin. Cells were plated and grown to 70% confluence. All cells were placed into serum-free medium for 72 h before addition of stimulating agents to ensure entry into a quiescent state.
(§2) Cultures of quiescent H4IIE cells or quiescent FAO cells were placed into 12-well culture dishes containing 2 mL serum-free medium, and then stimulated by direct addition of the inhibitors listed in Table 1 (volumes of additions were 10 μL or less) without replacing the medium. […] The cells in 12-well culture dishes were incubated with stimulating agents for 6 minutes and rinsed with phosphate buffered saline (PBS; 0.9% NaCl, 0.1 M Na3PO4, pH 7.1).
(§3) Cellular protein extracts were prepared by addition of 200 μL 2×SDS/gel loading buffer (0.125 M Tris pH 6.8, 2% SDS, 10% glycerol) to H4IIE cells in 12-well culture dishes. The samples were briefly sonicated, and protein content measured using the BCA protein assay kit. Aliquots containing equal amounts of protein were mixed with bromophenol blue (0.5% (w/v) final concentration) and 2-mercaptoethanol (5% (v/v) final concentration), heated at 95° C. and loaded onto 7.5% or 10% polyacrylamide gels. […] Primary antibodies (diluted 1:1000 in 3% (w/v) BSA) were incubated with the membrane for 60 min at 22° C. Membranes were subsequently washed four times and incubated for an additional 60 min at 1 8-22° C. in 1% (w/v) BSA-TBST with diluted HRP-coupled secondary antibody (1:10 000). HRP was detected using the ECL chemiluminescent system after the membranes had been washed four times.
Quantification of data obtained on film (Kodak X-omat) was accomplished with a GS800 imaging densitometer (Bio-Rad Laboratories) under nonsaturating conditions with local background subtraction. Although multiple exposures were acquired to ensure the absence of film saturation, the experimental figures typically show longer exposures selected specifically for visual presentation and not necessarily used for data analysis. Graphical data are presented as means±SE for a minimum of three replicate samples. […]

[2] = tested on: mitogen-activated protein kinase (MAPK); experiment: Western blot of MAPK phosphorylation in FAO hepatoma cells
Method: FAO cells are related to H4IIE since both cell lines were derived from Reuber H35 cells (Richardson et al., 1969, J. Cell Biol. 40: 236-247). […] FAO hepatoma cells were propagated under the same culture conditions used for H4IIE cells. Quiescent FAO cells were obtained by placing the cells into serum-free medium for 3 days.
Cultures of quiescent H4IIE cells or quiescent FAO cells were placed into 12-well culture dishes containing 2 mL serum-free medium, and then stimulated by direct addition of the inhibitors listed in Table 1 (volumes of additions were 10 μL or less) without replacing the medium. Inhibitors were added 10 minutes before the stimulating agents except for pertussis toxin which was added 4 hours prior. The cells in 12-well culture dishes were incubated with stimulating agents for 6 minutes and rinsed with phosphate buffered saline (PBS; 0.9% NaCl, 0.1 M Na3PO4, pH 7.1).
as §3
(§4) Quantification of data obtained on film (Kodak X-omat) was accomplished with a GS800 imaging densitometer (Bio-Rad Laboratories) under nonsaturating conditions with local background subtraction. […]

[3] = tested on: Insulin receptor substrate-I (Tyr941); experiment: Western blot of IRS-1 phosphorylation in H4IIE cells; conditions: 6 minutes
Method: (§5) Tissue culture media, antibiotics, fetal bovine serum (FBS) and Nunc tissue culture plates were purchased from Invitrogen Canada Inc. (Burlington, Ontario, Canada, L7P 1A1). Insulin (Sigma-Aldrich Canada Ltd., Oakville, Ontario, Canada, L6H 6J8) was dissolved in water and added directly to cells at a concentration of 250 nM unless otherwise indicated. The BWE was prepared and analyzed as described in Example 1. Two μL of the BWE were added directly to cells unless otherwise indicated. This amount was chosen on the basis of equivalence to insulin. Myo-inositol (Sigma-Aldrich Canada Ltd.) and D-chiro-inositol (Industrial Research Ltd., Wellington, New Zealand) were dissolved in water at an equal concentration to the amounts present in the BWE (Table 3) and 2 μL of each solution (0.1% v/v final concentration) was added directly to cells.
as §1, with “state. […]” for “state.”
(§6) Cellular protein extracts were prepared by addition of 200 μL 2×SDS/gel loading buffer (0.125 M Tris pH 6.8, 2% SDS, 10% glycerol) to H4IIE cells in 12-well culture dishes. The samples were briefly sonicated, and protein content measured using the BCA protein assay kit. […] HRP was detected using the ECL chemiluminescent system after the membranes had been washed four times.
as §4

Akt (Ser473) = experiment: Western blot of Akt phosphorylation in H4IIE cells; conditions: 6 minutes
Method: as §5
as §1, with “state. […]” for “state.”
as §6, §4

Src (Tyr527) = experiment: Western blot of Src phosphorylation in H4IIE cells; conditions: 6 minutes
Method: as §5
as §1, with “state. […]” for “state.”
as §6, §4

STAT3 (Tyr705) = experiment: Western blot of STAT3 phosphorylation in H4IIE cells; conditions: 6 minutes
Method: as §5
as §1, with “state. […]” for “state.”
as §6, §4

GSK3 (Ser21/9) = experiment: Western blot of GSK3 phosphorylation in H4IIE cells; conditions: 6 minutes
Method: as §5
as §1, with “state. […]” for “state.”
as §6, §4

[4] = tested on: p70S6K (Thr389 and Thr421); experiment: Western blot of p70S6K phosphorylation in H4IIE cells
Method: as §5, §1, §2, §3
Quantification of data obtained on film (Kodak X-omat) was accomplished with a GS800 imaging densitometer (Bio-Rad Laboratories) under nonsaturating conditions with local background subtraction. Although multiple exposures were acquired to ensure the absence of film saturation, the experimental figures typically show longer exposures selected specifically for visual presentation and not necessarily used for data analysis. Graphical data are presented as means±SE for a minimum of three replicate samples.

[5] = insulin-stimulated, 6 min, 15-min preincubation with the inhibitor (None = insulin alone), one experiment

| Compound | phosphorylation of MAPK (FIG. 9) [1] | phosphorylation of MAPK in FAO cells (FIG. 10) [2] | phosphorylation of IRS-1 [3] | phosphorylation of Akt (Akt (Ser473)) | phosphorylation of Src (Src (Tyr527)) | phosphorylation of STAT3 (STAT3 (Tyr705)) | phosphorylation of GSK3 (GSK3 (Ser21/9)) | phosphorylation of p70S6K (Thr421) ([4]; 6 minutes) | p42/44 P-MAPK (Thr202/Tyr204) phosphorylation, stimulation (fold) relative to the control ([1]; BWE-stimulated, 6 min, 15-min preincubation with the inhibitor (None = BWE alone), one experiment) | p42/44 P-MAPK (Thr202/Tyr204) phosphorylation, stimulation (fold) relative to the control [1, 5] | effect of the inhibitor on insulin- and BWE-stimulated phosphorylation of MAPK ([1]; preincubation with inhibitor, then insulin or BWE for 6 minutes) | effect of the inhibitor on insulin-stimulated phosphorylation of p70S6K (Thr389) ([4]; 15-minute pre-incubation with inhibitor, then INS 6 minutes) | effect of the inhibitor on insulin- and BWE-stimulated phosphorylation of p70S6K (Thr421) ([4]; 15-minute pre-incubation with inhibitor, then INS or BWE 6 minutes) | phosphorylation of MAPK, stimulation (fold) relative to the control (Table 6) ([1]; insulin treatment, 6 min, 15-min preincubation with PKA/PKC inhibitor (None = insulin alone), one experiment) | phosphorylation of p70S6K (Thr389) ([4]; 6 minutes) |
| --- | --- | --- | --- | --- | --- | --- | --- | --- | --- | --- | --- | --- | --- | --- | --- |
| OC1C(O)C(O)C(O)C(O)C1O [D-CI, D-chiro-inositol] | neither D-CI nor MI increased phosphorylation | did not | do not provide comparable stimulation | do not provide comparable stimulation | do not provide comparable stimulation | do not provide comparable stimulation | do not provide comparable stimulation | unable to effect phosphorylation |  |  |  |  |  |  |  |
| O[C@H]1[C@H](O)[C@@H](O)[C@H](O)[C@@H](O)[C@H]1O [MI, myo-inositol] | neither D-CI nor MI increased phosphorylation | did not | do not provide comparable stimulation | do not provide comparable stimulation | do not provide comparable stimulation | do not provide comparable stimulation | do not provide comparable stimulation | unable to effect phosphorylation |  |  |  |  |  |  |  |
| COc1cccc(-c2cc(=O)c3ccccc3o2)c1N [PD98059] |  |  |  |  |  |  |  |  | 1.00 fold | 1 fold | inhibited | independent of MAPK | MAPK-dependent (PD98059 sensitive) |  |  |
| insulin: Insulin (Sigma-Aldrich) dissolved in water, positive comparator | increased the phosphorylation of MAPK | stimulated MAPK phosphorylation | phosphorylated in response to insulin | phosphorylated in response to insulin | phosphorylated in response to insulin | phosphorylated in response to insulin | phosphorylated in response to insulin | stimulates the phosphorylation of p70^S6K on both residues |  | 13.3 fold |  |  |  | 3.53 fold | stimulates the phosphorylation of p70^S6K on both residues |
